A short description of this series: Oxidative status / stability (PV, AV, Totox; CDR FoodLab Junior analyzer), storage with closed lids at room temperature. It is filed as physicochemical. The settings on record: for TOTOX: Totox=2*PV+AV. The protocol:
The final product in powder form is isolated by evaporating said first and second organic solvents and water from the reaction mixture to recover said basic amino acid salts of PUFAs. Preferably, said evaporation step is carried under reduced pressure between about 0° C.-70° C. depending on the properties of the equipment used. The oxidative status of the obtained final product described herein is quantified by peroxide value (PV), anisidine value (AV) and Totox value. PV is a measure of the level of the primary oxidation products (lipid hydroperoxides) in the product, which is specified in milliequivalents O2 per kg of sample, while the AV is an unspecific measure of saturated and unsaturated carbonyl compounds. Totox is calculated by the equation Totox=2*PV+AV.
The comparison of oxidative status of amino acid salts of omega-3, starting material in ester form and fish oil in free acid form are assessed by measuring the PV and AV, then all the samples are subjected to the same oxidizing condition over a certain period of time, followed by the measuring PV and AV of the samples. The oxidizing conditions are selected from one of them as below: 1) Storage in closed containers at atmospheric condition for 7 months; or 2) Storage in loose closed containers exposed to air at 40° C. for 1 month.
Food Lab Analyzer: Among several techniques known in the art for determining the oxidative levels of a sample. The CDR FoodLab® Junior analyzer is used herein for determining PV and AV. The procedures are as described below:
The solid product 0.5 g was dissolved in 2 ml of MeOH and HCl solution with the ratio of 1:10 (v/v). The mixture was stirred for 5 minutes, followed by the addition of 5 ml of water. The mixture was extracted with 3 ml of hexane containing 100 ppm butylhydroxytoluene (BHT). The organic layer was dried over MgSO4, filtrated and evaporated under reduced pressure at the temperature of 0-70° C. to get the fish oil in free acid form, which is evaluated with the CDR FoodLab® Junior analyzer to get anisidine and peroxide values using the CDR FoodLab® Junior analyzer.
The molar ratio of EPA, NaOH and glycine was 1:1:1. The mixture was stirred at atmospheric condition (i.e. atmospheric pressure and room temperature) for 5 minutes to obtain a suspension solution. 100 mL of acetonitrile was added to further precipitate the glycine salt. […] About 8 g of EPA-gly was stored in a 20 ml of clear vial with a diameter of 27 mm, which was placed with closed lids on the bench at room temperature for the stability examination for 60 days.

Setting [1] is: Table 1, time 60 d, closed lids, room temperature.
Setting [2] is: salt as generated, after roughing pump for 1 day.

Each structure is given as a SMILES string.

As for `CC/C=C\C/C=C\C/C=C\C/C=C\C/C=C\C/C=C\CCC(=O)O.NCC(=O)O` [DHA-gly, glycine salt of docosahexaenoic acid], where the note is “Table 1, time 1 d”, the AV was >100 A/g and the PV was 9.71 meq O2/Kg. Besides, under setting [1], the AV amounted to 7.4 A/g, the PV is given as 1.92 meq O2/Kg and the TOTOX is listed as 11.24. Also, under setting [2], the PV came out at 9.71 meqO2/kg.
For the setting “Table 1, time 1 d”, `CC/C=C\C/C=C\C/C=C\C/C=C\C/C=C\CCCC(=O)O.NCC(=O)O` [EPA-gly, glycine salt of eicosapentaenoic acid] yielded an AV of 14.6 A/g, a PV of 29.9 meq O2/Kg and a TOTOX of 74.4. Moreover, under setting [1], the AV was <0.5 A/g, the PV amounted to 1.19 meq O2/Kg and the TOTOX is listed as 2.38. Also, under setting [2], the AV is on record as 14.6 A/g and the PV came to 29.9 meqO2/kg.
